Molecules are shown by their SMILES.

These results are taken from paper PMC5352699, “Synthesis and in vitro antitumor activity of (1E,4E)-1-aryl-5-(2-((quinazolin-4-yl)oxy)phenyl)-1,4-pentadien-3-one derivatives” (Chemistry Central Journal, 2017).

For data set [1], the system named is human prostate cancer cell line PC3. The data set can be described thus: MTT assay, PC3 cells. The format is cell-based. Conditions: for inhibition at 10 µM: PC-3, 10 μM, 72 h, read-out: Inhibition rates against different cells (%) PC3; for IC50: PC-3, 72 h after treatment. The method, then: (§1) The in vitro antitumor activity of the newly synthesized compounds 5a–5n were evaluated against a panel of three human cancer cell lines, including human gastric cancer cell line MGC-803, human prostate cancer cell line PC3, and human breast cancer cell line Bcap-37, and one normal cell line NIH3T3 (mouse embryo fibroblast cell line) by MTT method. Adriamycin (ADM) was chosen as a reference drug due to its availability and widespread use. Each experiment was repeated at least three times.
(§2) Human gastric cancer cell line MGC-803, human prostate cancer cell line PC3, and human breast cancer cell line Bcap-37 and one normal cell line NIH3T3 were obtained from Cell Bank of Type Culture Collection of Chinese Academy of Sciences (Shanghai, China). NIH3T3 was routinely maintained in a DMEM medium, while all the other cell lines were cultured in a 1640 medium. All the cells were grown in the medium supplemented with 10% FBS at 37 °C with 5% CO2.
(§3) The growth-inhibitory effects of the test compounds were determined on MGC-803, PC3, Bcap-37, and NIH3T3 cells. All cell types were seeded into 96-well plates at a density of 2 × 10^3 cells/well 100 μL of the proper culture medium and incubated with increasing concentrations of the compounds at 37 °C under cell culturing conditions. An MTT assay (Roche Molecular Biochemicals, 1465-007) was performed 72 h later according to the instructions provided by Roche. The precipitated formazan crystals were dissolved in SDS, and the absorbance was read at 595 nm with a microplate reader (BIO-RAD, model 680), which is directly proportional to the number of living cells in culture. The experiment was performed in triplicate. The percentage cytotoxicity was calculated using the formula. %Cytotoxicity=Controlabs-Blankabs-Testabs-Blankabs/Controlabs-Blankabs×100
In general terms: Tetrazolium assays rely on reduction of a dye to a coloured formazan, in cell work by metabolically active cells.

The subject of data set [2] is human breast cancer cell line Bcap-37. The data set can be described thus: MTT assay, Bcap-37 cells. The format is cell-based. Conditions: for inhibition at 10 µM: Bcap37, 10 μM, 72 h, read-out: Inhibition rates against different cells (%) Bcap-37; for IC50: Bcap37, 72 h after treatment. The method, then:
as §1, §2, §3

The test system of data set [3] is normal cell line NIH3T3 (mouse embryo fibroblast cell line). The experiment in a line: MTT assay, NIH3T3 normal cells. It counts as cell-based. Conditions: 72 h, read-out: Inhibition rates against different cells (%) NIH3T3. The method, then: as §1, §2, §3
Data set [4] deals with human gastric cancer cell line MGC-803. The data set can be described thus: MTT assay, MGC-803 cells. Particulars: for inhibition at 10 µM: 72 h, read-out: Inhibition rates against different cells (%) MGC-803; for IC50: 72 h after treatment. It counts as cell-based. The protocol:
as §1, §2, §3

By inhibition is commonly meant the relative decrease from the control value, in per cent. For orientation: IC50 means the point on the concentration scale where inhibition reaches its midpoint. On to `COc1cccc2c1C(=O)c1c(O)c3c(c(O)c1C2=O)C[C@@](O)(C(=O)CO)C[C@@H]3O[C@H]1C[C@H](N)[C@H](O)[C@H](C)O1` [ADM, Adriamycin, reference compound], for which the inhibition at 10 µM was determined as 91.2 ± 0.4% in data set [1], 94.5 ± 0.9% in data set [2], 100 ± 0.7% in data set [3] and 97.5 ± 1.2% in data set [4]. In addition, the values for the IC50 in data set [1], in data set [2] and in data set [4] were 1.01 ± 0.2 µM, 1.9 ± 0.25 µM and 0.74 ± 0.24 µM, respectively.
Take `Cc1ccc2ncnc(Oc3ccccc3/C=C/C(=O)/C=C/c3ccccc3F)c2c1` [Compound 5a, (1E,4E)-1-(2-fluorophenyl)-5-(2-((6-methylquinazolin-4-yl)oxy)phenyl)penta-1,4-dien-3-one]: the inhibition at 10 µM was found to be 68.5 ± 2.3% in data set [1], 44.1 ± 2.6% in data set [2], 65.7 ± 1.3% in data set [3] and 71.9 ± 0.9% in data set [4]. Further, the IC50 in data set [1] was found to be 9.24 ± 0.46 µM; in data set [2] it was 11.7 ± 0.39 µM; in data set [4], 7.69 ± 0.37 µM.
The melting point is the temperature of the solid-liquid transition. As to `Cc1ccc2ncnc(Oc3ccccc3/C=C/C(=O)/C=C/c3ccccc3Cl)c2c1` [Compound 5b, (1E,4E)-1-(2-chlorophenyl)-5-(2-((6-methylquinazolin-4-yl)oxy)phenyl)penta-1,4-dien-3-one], the melting point lay in the range of 152 to 154 °C. For the same molecule, in data set [1], the inhibition at 10 µM came out at 78.7 ± 2.4% and the IC50 amounted to 8.12 ± 0.46 µM. In data set [2], the inhibition at 10 µM is 57.3 ± 2% and the IC50 was found to be 10.1 ± 0.67 µM. The inhibition at 10 µM in data set [3] came to 15.4 ± 1.5%. For the same molecule, in data set [4], the inhibition at 10 µM stood at 83.5 ± 1.5% and the IC50 is 5.2 ± 0.51 µM.
`Cc1ccc2ncnc(Oc3ccccc3/C=C/C(=O)/C=C/c3ccc(Cl)cc3)c2c1` [Compound 5c, (1E,4E)-1-(4-chlorophenyl)-5-(2-((6-methylquinazolin-4-yl)oxy)phenyl)penta-1,4-dien-3-one]: the melting point was in the range of 173 to 176 °C. Also, in data set [1], the inhibition at 10 µM is 76.5 ± 1.7% and inhibition was half-maximal at 7.85 ± 0.32 µM (IC50). In data set [2], the inhibition at 10 µM turned out to be 54.2 ± 1.1% and half-maximal inhibition (IC50) required 9.34 ± 0.52 µM. The inhibition at 10 µM in data set [3] turned out to be 16.1 ± 2.7%. Besides, in data set [4], the inhibition at 10 µM is 79.2 ± 2.8% and the IC50 stood at 5.44 ± 0.45 µM.
As to `Cc1ccc2ncnc(Oc3ccccc3/C=C/C(=O)/C=C/c3cc([N+](=O)[O-])ccc3Cl)c2c1` [Compound 5d, (1E,4E)-1-(2-chloro-5-nitrophenyl)-5-(2-((6-methylquinazolin-4-yl)oxy)phenyl)penta-1,4-dien-3-one], the inhibition at 10 µM stood at 86.3 ± 0.8% in data set [1], 58.5 ± 1.3% in data set [2], 71.9 ± 1.4% in data set [3] and 87.5 ± 0.2% in data set [4]. For the same molecule, the IC50 in data set [1] stood at 2.68 ± 0.43 µM; in data set [2] it was 7.52 ± 0.36 µM; in data set [4], 1.72 ± 0.22 µM.
`Cc1ccc2ncnc(Oc3ccccc3/C=C/C(=O)/C=C/c3ccc(Cl)cc3Cl)c2c1` [Compound 5e, (1E,4E)-1-(2,4-dichlorophenyl)-5-(2-((6-methylquinazolin-4-yl)oxy)phenyl)penta-1,4-dien-3-one]: the melting point lay within 211 to 214 °C. Besides, in data set [1], the inhibition at 10 µM was found to be 75.2 ± 7.8% and inhibition was half-maximal at 4.71 ± 0.36 µM (IC50). In addition, in data set [2], the inhibition at 10 µM amounted to 67.3 ± 3.9% and the IC50 is 9.6 ± 0.42 µM. Further, the inhibition at 10 µM in data set [3] worked out at 53.8 ± 1.8%. In data set [4], the inhibition at 10 µM is 87 ± 1% and half-maximal inhibition (IC50) was put at 1.89 ± 0.26 µM.
The molecule `COc1ccc(OC)c(/C=C/C(=O)/C=C/c2ccccc2Oc2ncnc3ccc(C)cc23)c1` [Compound 5g] displayed a melting point of 122 to 123 °C. In addition, in data set [1], the inhibition at 10 µM stood at 83.1 ± 2.8% and the IC50 came to 2.18 ± 0.31 µM. In data set [2], the inhibition at 10 µM was 74.9 ± 2% and the IC50 is 5.61 ± 0.5 µM. In addition, in data set [3], the inhibition at 10 µM turned out to be 74.3 ± 0.9%. In data set [4], the inhibition at 10 µM was determined as 85.9 ± 1.2% and 2.02 ± 0.37 µM corresponded to half-maximal inhibition (IC50).
Consider `Cc1cccc2c(Oc3ccccc3/C=C/C(=O)/C=C/c3ccccc3F)ncnc12` [Compound 5h, (1E,4E)-1-(2-fluorophenyl)-5-(2-((8-methylquinazolin-4-yl)oxy)phenyl)penta-1,4-dien-3-one], for which the inhibition at 10 µM came to 43.7 ± 12.1% in data set [1], 36.6 ± 2.7% in data set [2], 13.4 ± 2.2% in data set [3] and 62.3 ± 1.4% in data set [4]. For the same molecule, the IC50 was 11.7 ± 0.48 µM in data set [1], 15.6 ± 0.51 µM in data set [2] and 9.06 ± 0.4 µM in data set [4].
The molecule `Cc1cccc2c(Oc3ccccc3/C=C/C(=O)/C=C/c3ccccc3Cl)ncnc12` [Compound 5i, (1E,4E)-1-(2-chlorophenyl)-5-(2-((8-methylquinazolin-4-yl)oxy)phenyl)penta-1,4-dien-3-one] yielded a melting point of 152 to 154 °C. Also, in data set [1], the inhibition at 10 µM turned out to be 65.1 ± 2.6% and the IC50 stood at 9.36 ± 0.52 µM. In addition, in data set [2], the inhibition at 10 µM turned out to be 47.1 ± 2.6% and it took 10.7 ± 0.62 µM to reach half-maximal inhibition (IC50). Also, the inhibition at 10 µM in data set [3] stood at 14.4 ± 2.6%. Besides, in data set [4], the inhibition at 10 µM came out at 79.4 ± 2.4% and the IC50 was 7.78 ± 0.48 µM.
`Cc1cccc2c(Oc3ccccc3/C=C/C(=O)/C=C/c3ccc(Cl)cc3)ncnc12` [Compound 5j, (1E,4E)-1-(4-chlorophenyl)-5-(2-((8-methylquinazolin-4-yl)oxy)phenyl)penta-1,4-dien-3-one] returned a melting point of 161 to 163 °C. In data set [1], the inhibition at 10 µM turned out to be 71.9 ± 3.1% and 8.64 ± 0.47 µM corresponded to half-maximal inhibition (IC50). Also, in data set [2], the inhibition at 10 µM is 45.4 ± 2.2% and the IC50 was 12.1 ± 0.31 µM. In addition, the inhibition at 10 µM in data set [3] came to 41 ± 2.1%. In data set [4], the inhibition at 10 µM is 76.3 ± 0.8% and the concentration for half-maximal inhibition (IC50) worked out at 6.42 ± 0.44 µM.
Molecule `Cc1cccc2c(Oc3ccccc3/C=C/C(=O)/C=C/c3cc([N+](=O)[O-])ccc3Cl)ncnc12` [Compound 5k, (1E,4E)-1-(2-chloro-5-nitrophenyl)-5-(2-((8-methylquinazolin-4-yl)oxy)phenyl)penta-1,4-dien-3-one] came in with a melting point of 198 to 200 °C. In data set [1], the inhibition at 10 µM worked out at 76.3 ± 2.5% and the IC50 was 8.12 ± 0.46 µM. Besides, in data set [2], the inhibition at 10 µM was 60.2 ± 1.4% and half-maximal inhibition (IC50) required 8.92 ± 0.58 µM. For the same molecule, in data set [3], the inhibition at 10 µM amounted to 3 ± 2.3%. Besides, in data set [4], the inhibition at 10 µM was found to be 82.1 ± 3% and 2.94 ± 0.32 µM corresponded to half-maximal inhibition (IC50).
Molecule `Cc1cccc2c(Oc3ccccc3/C=C/C(=O)/C=C/c3ccc(Cl)cc3Cl)ncnc12` [Compound 5l, (1E,4E)-1-(2,4-dichlorophenyl)-5-(2-((8-methylquinazolin-4-yl)oxy)phenyl)penta-1,4-dien-3-one] returned a melting point of 175 to 178 °C. In data set [1], the inhibition at 10 µM was 55.7 ± 1.5% and the IC50 was 9.08 ± 0.52 µM. In addition, in data set [2], the inhibition at 10 µM was 54.6 ± 1% and inhibition was half-maximal at 9.83 ± 0.46 µM (IC50). Further, the inhibition at 10 µM in data set [3] is 0.8 ± 1.6%. Moreover, in data set [4], the inhibition at 10 µM worked out at 61.2 ± 1.3% and the midpoint of inhibition, the IC50, lay at 4.33 ± 0.35 µM.
`Cc1cccc2c(Oc3ccccc3/C=C/C(=O)/C=C/c3c(Cl)cccc3Cl)ncnc12` [Compound 5m, (1E,4E)-1-(2,6-dichlorophenyl)-5-(2-((8-methylquinazolin-4-yl)oxy)phenyl)penta-1,4-dien-3-one] registered a melting point of 161 to 163 °C. Also, in data set [1], the inhibition at 10 µM turned out to be 81.2 ± 2.8% and the midpoint of inhibition, the IC50, lay at 3.79 ± 0.47 µM. In addition, in data set [2], the inhibition at 10 µM came out at 66.4 ± 1.5% and the IC50 worked out at 7.82 ± 0.39 µM. The inhibition at 10 µM in data set [3] amounted to 12.4 ± 2.5%. Also, in data set [4], the inhibition at 10 µM is 81.1 ± 1.7% and it took 2.05 ± 0.39 µM to reach half-maximal inhibition (IC50).
Molecule `COc1ccc(OC)c(/C=C/C(=O)/C=C/c2ccccc2Oc2ncnc3c(C)cccc23)c1` [Compound 5n, (1E,4E)-1-(2,5-dimethoxyphenyl)-5-(2-((8-methylquinazolin-4-yl)oxy)phenyl)penta-1,4-dien-3-one] showed a melting point of 176 to 178 °C. In data set [1], the inhibition at 10 µM was 69 ± 1.7% and it took 4.16 ± 0.43 µM to reach half-maximal inhibition (IC50). Also, in data set [2], the inhibition at 10 µM came out at 55.8 ± 1.1% and the midpoint of inhibition, the IC50, lay at 8.7 ± 0.54 µM. Moreover, in data set [3], the inhibition at 10 µM came to 29.6 ± 2.4%. In data set [4], the inhibition at 10 µM came to 78.7 ± 2.7% and half-maximal inhibition (IC50) was put at 3.33 ± 0.42 µM.
